# Laboratory results reported in PubChem BioAssay (NCI).
#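 Tested at 5 concentrations; 48 h exposure; 96-well plates; endpoints linearly interpolated, else capped at highest concentration. Definition used: TGI = concentration required for complete inhibition of growth.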
# Tests used:
# Assay in all cases: NCI anticancer screen, dose series, 48 h
# [1] = test system: 786-0 renal
# [2] = test system: A498 renal
# [3] = test system: A549 NSCLC
# [4] = test system: ACHN renal
# [5] = test system: CCRF-CEM leukemia
# [6] = test system: COLO 205 colon
# [7] = test system: DLD-1 colon
# [8] = test system: DMS 114 small cell lung
# [9] = test system: DMS 273 small cell lung
# [10] = test system: EKVX NSCLC
# [11] = test system: HCC-2998 colon
# [12] = test system: HCT-116 colon
# [13] = test system: HL-60(TB) leukemia
# [14] = test system: HOP-18 NSCLC
# [15] = test system: HOP-62 NSCLC
# [16] = test system: HOP-92 NSCLC
# [17] = test system: HT29 colon
# [18] = test system: IGROV1 ovarian
# [19] = test system: K-562 leukemia
# [20] = test system: KM12 colon
# [21] = test system: KM20L2 colon
# [22] = test system: LOX IMVI melanoma
# [23] = test system: LXFL 529 NSCLC
# [24] = test system: M19-MEL melanoma
# [25] = test system: MALME-3M melanoma
# [26] = test system: MOLT-4 leukemia
# [27] = test system: NCI-H23 lung
# [28] = test system: NCI-H460 lung
# [29] = test system: NCI-H522 lung
# [30] = test system: OVCAR-3 ovarian
# [31] = test system: OVCAR-5 ovarian
# [32] = test system: OVCAR-8 ovarian
# [33] = test system: RPMI-8226 leukemia
# [34] = test system: RXF 393 renal
# [35] = test system: RXF-631 renal
# [36] = test system: SF-268 CNS
# [37] = test system: SF-295 CNS
# [38] = test system: SF-539 CNS
# [39] = test system: SK-MEL-2 melanoma
# [40] = test system: SK-MEL-28 melanoma
# [41] = test system: SK-MEL-5 melanoma
# [42] = test system: SK-OV-3 ovarian
# [43] = test system: SNB-19 CNS
# [44] = test system: SNB-75 CNS
# [45] = test system: SNB-78 CNS
# [46] = test system: SW-620 colon
# [47] = test system: TK-10 renal
# [48] = test system: U251 CNS
# [49] = test system: UACC-257 melanoma
# [50] = test system: UO-31 renal
# [51] = test system: XF 498 CNS
# [52] = test system: CAKI-1 renal
# [53] = test system: HCT-15 colon
# [54] = test system: M14 melanoma
# [55] = test system: NCI-H226 lung
# [56] = test system: OVCAR-4 ovarian
# [57] = test system: SN12C renal
# [58] = test system: SR leukemia
# [59] = test system: UACC-62 melanoma
smiles,measurement,setting,value
Cn1ccc(=NS(=O)(=O)c2ccccc2)cc1,TGI,[1],> 100 µM
same,TGI,[2],> 100 µM
same,TGI,[3],> 100 µM
same,TGI,[4],> 100 µM
same,TGI,[5],> 100 µM
same,TGI,[6],> 100 µM
same,TGI,[7],> 100 µM
same,TGI,[8],> 100 µM
same,TGI,[9],> 100 µM
same,TGI,[10],> 100 µM
same,TGI,[11],> 100 µM
same,TGI,[12],> 100 µM
same,TGI,[13],> 100 µM
same,TGI,[14],> 100 µM
same,TGI,[15],> 100 µM
same,TGI,[16],> 100 µM
same,TGI,[17],> 100 µM
same,TGI,[18],> 100 µM
same,TGI,[19],> 100 µM
same,TGI,[20],> 100 µM
same,TGI,[21],> 100 µM
same,TGI,[22],> 100 µM
same,TGI,[23],> 100 µM
same,TGI,[24],> 100 µM
same,TGI,[25],> 100 µM
same,TGI,[26],> 100 µM
same,TGI,[27],> 100 µM
same,TGI,[28],> 100 µM
same,TGI,[29],> 100 µM
same,TGI,[30],> 100 µM
same,TGI,[31],> 100 µM
same,TGI,[32],> 100 µM
same,TGI,[33],> 100 µM
same,TGI,[34],> 100 µM
same,TGI,[35],> 100 µM
same,TGI,[36],> 100 µM
same,TGI,[37],> 100 µM
same,TGI,[38],> 100 µM
same,TGI,[39],> 100 µM
same,TGI,[40],> 100 µM
same,TGI,[41],> 100 µM
same,TGI,[42],> 100 µM
same,TGI,[43],> 100 µM
same,TGI,[44],> 100 µM
same,TGI,[45],> 100 µM
same,TGI,[46],> 100 µM
same,TGI,[47],> 100 µM
same,TGI,[48],> 100 µM
same,TGI,[49],> 100 µM
same,TGI,[50],> 100 µM
same,TGI,[51],> 100 µM
CC12C3CC4C5CC(C(C53)[C@@H]1NCc1ccccc1)C42 (some centres undefined),TGI,[1],> 100 µM
same,TGI,[2],> 100 µM
same,TGI,[3],> 100 µM
same,TGI,[4],> 100 µM
same,TGI,[52],> 100 µM
same,TGI,[5],> 100 µM
same,TGI,[6],75.3 µM
same,TGI,[7],> 100 µM
same,TGI,[8],> 100 µM
same,TGI,[9],> 100 µM
same,TGI,[10],> 100 µM
same,TGI,[11],41.8 µM
same,TGI,[12],> 100 µM
same,TGI,[53],> 100 µM
same,TGI,[13],> 100 µM
same,TGI,[14],> 100 µM
same,TGI,[15],> 100 µM
same,TGI,[16],> 100 µM
same,TGI,[17],> 100 µM
same,TGI,[18],> 100 µM
same,TGI,[19],> 100 µM
same,TGI,[20],> 100 µM
same,TGI,[21],> 100 µM
same,TGI,[22],> 100 µM
same,TGI,[23],> 100 µM
same,TGI,[54],> 100 µM
same,TGI,[25],> 100 µM
same,TGI,[26],> 100 µM
same,TGI,[55],> 100 µM
same,TGI,[27],> 100 µM
same,TGI,[28],> 100 µM
same,TGI,[29],> 100 µM
same,TGI,[30],> 100 µM
same,TGI,[56],> 100 µM
same,TGI,[31],> 100 µM
same,TGI,[32],> 100 µM
same,TGI,[33],> 100 µM
same,TGI,[34],> 100 µM
same,TGI,[35],> 100 µM
same,TGI,[36],> 100 µM
same,TGI,[37],> 100 µM
same,TGI,[38],> 100 µM
same,TGI,[39],> 100 µM
same,TGI,[40],> 100 µM
same,TGI,[41],> 100 µM
same,TGI,[42],> 100 µM
same,TGI,[57],> 100 µM
same,TGI,[43],> 100 µM
same,TGI,[44],> 100 µM
same,TGI,[45],> 100 µM
same,TGI,[58],> 100 µM
same,TGI,[46],> 100 µM
same,TGI,[47],> 100 µM
same,TGI,[48],> 100 µM
same,TGI,[49],> 100 µM
same,TGI,[59],> 100 µM
same,TGI,[50],> 100 µM
same,TGI,[51],> 100 µM
O=[N+]([O-])c1cccc(C2=NN(c3ccccc3)C3c4ccccc4OCC23)c1 (centres undefined),TGI,[1],> 100 µM
same,TGI,[2],> 100 µM
same,TGI,[3],> 100 µM
same,TGI,[4],> 100 µM
same,TGI,[5],> 100 µM
same,TGI,[6],> 100 µM
same,TGI,[7],> 100 µM
same,TGI,[8],> 100 µM
same,TGI,[9],> 100 µM
same,TGI,[10],> 100 µM
same,TGI,[11],> 100 µM
same,TGI,[12],> 100 µM
same,TGI,[13],> 100 µM
same,TGI,[14],> 100 µM
same,TGI,[15],> 100 µM
same,TGI,[16],> 100 µM
same,TGI,[17],> 100 µM
same,TGI,[18],> 100 µM
same,TGI,[19],> 100 µM
same,TGI,[20],> 100 µM
same,TGI,[21],> 100 µM
same,TGI,[22],> 100 µM
same,TGI,[23],> 100 µM
same,TGI,[24],> 100 µM
same,TGI,[25],> 100 µM
same,TGI,[26],> 100 µM
same,TGI,[27],> 100 µM
same,TGI,[28],> 100 µM
same,TGI,[29],> 100 µM
same,TGI,[30],> 100 µM
same,TGI,[31],> 100 µM
same,TGI,[32],> 100 µM
same,TGI,[33],> 100 µM
same,TGI,[34],> 100 µM
same,TGI,[35],> 100 µM
same,TGI,[36],> 100 µM
same,TGI,[37],> 100 µM
same,TGI,[38],> 100 µM
same,TGI,[39],> 100 µM
same,TGI,[40],> 100 µM
same,TGI,[42],> 100 µM
same,TGI,[43],> 100 µM
same,TGI,[44],> 100 µM
same,TGI,[45],> 100 µM
same,TGI,[46],> 100 µM
same,TGI,[47],> 100 µM
same,TGI,[48],> 100 µM
same,TGI,[49],> 100 µM
same,TGI,[50],> 100 µM
same,TGI,[51],> 100 µM
